What was measured:
[1] = tested on: rat adrenal cells; experiment: Time and concentration dependence of effects on ACTH-stimulated corticosterone production by rat adrenal cells; type: cell-based; settings: for time dependence of inhibition of corticosterone production: FIG. 2, FIG. 3; for inhibition of ACTH-stimulated corticosterone production: rat cells
Method: (§1) Additionally data showing that the silicon and sulfur-containing compounds of the present invention are effective at halting steroid hormone biosynthesis when given at low concentrations to suspensions of human and rat adrenal cells are depicted in the following figures and table.
Steroid was added at […]. […] At 10 μM 20 OH TMS steroid, corticosterone production is obliterated by 40 min.
Steroid was added at t=-10 min.

[2] = tested on: cytochrome P-450 cholesterol side chain cleavage enzyme (P-450scc); experiment: P-450scc inactivation, preincubation study (pregnenolone formation from [3H]cholesterol); type: biochemical; settings: NADPH and/or O2, FIG. 1: P450 1.35 μM, steroid 20 μM
Method: As mentioned previously, the compounds of the present invention are potent inhibitors of the conversion of cholesterol to pregnenolone.
The final turnover mixture contained 2.5 μM adrenodoxin, 150 nM adrenodoxin reductase, 50 mM K^+ MOPS (pH 7.2), 10 mM MgCl2, 0.2% Tween 20, 1 unit/mL catalase, a NADPH-generating system of 16 μM NADPH, 3 mM G6P, and 1 unit/mL […]. For a typical preincubation experiment, inhibitor was added as an ethanol solution (2-10 mM) into the P-450 turnover mixture at 37° C. and the reactions were started by addition of NADPH stock solution. After, 0, 5, 10, 15, 30, or 45 min. of incubation, an aliquot of this mixture (200μ) was introduced into 1.8 ml of the turnover mixture containing [1, 2-^3 H] cholesterol (100 μM 10,000 dpm/nmol). After 10 min., the reaction was terminated by acidification, and [4-^- C] prengenolone were added as an internal standard. The resulting mixture was extracted using ethyl acetate and evaporated to dryness. The product pregnenolone was separated on silica gel TLC plates (Baker-flex) using 1:1 ethyl acetate-hexane as the solvent. The product formation was determined from the ratio of ^3 H to ^14 C in the recovered pregnenolone.
The P450 concentration was 1.35 μM and the steroid was 20 μM=NADPH; 0=no inhibitor+NADPH; 0=NADPH.

[3] = tested on: human adrenal cells; experiment: ACTH-stimulated cortisol production by human adrenal cell suspensions; type: cell-based; settings: for time dependence of inhibition of cortisol production: FIG. 4, FIG. 5; for inhibition of ACTH-stimulated cortisol production: human cells
Text: as §1

[4] = tested on: rat adrenocortical cells; experiment: Effects of cholesterol analogues on adrenal cell corticosterone production (with or without ACTH); type: cell-based
Text: When rat adrenocortical cells were stimulated with ACTH in the presence of the P-450 scc inhibitors of the present invention, and the production of cortiscoterone measured, less corticosterone was produced in the presence of the compounds of the present invention, then when those compounds were absent.
Corticosterone production rates by non-stimulated rat adrenal cell suspensions are approximately one-fifth those of ACTH stimulated rates. […] This property, combined with P-450 scc inhibitors with and without polar side chains was used to determine how ACTH stimulation results in increased conversion of endogenous cholesterol to corticosterone.
Cells (30,000/ml) were preincubated with steroid for 10 minutes.
Maximally stimulating levels of ACTH were then added and the
incubation continued for another 60 minutes. The incubations were
then quenched, and samples assayed for
corticosterone fluorometrically.

[5] = FIG. 5, 10 μM for the 20(S) compound
[6] = ACTH + steroid 2 ug/ml, ACTH only = 100, 10 min preincubation, 60 min incubation

Compound: C[C@]12CC[C@H]3[C@@H](CC=C4C[C@@H](O)CC[C@@]43C)[C@@H]1CC[C@@H]2[C@@](C)(O)CC[Si](C)(C)C [20 OH TMS, 20-(2-Trimethylsilyl-ethyl) pregnen-3, 20a-diol]
- corticosterone production ([1]; 10 μM steroid, by 40 min (FIG. 2)): obliterated
- time dependence of inhibition of corticosterone production [1]: strongly time dependent
- inhibition of ACTH-stimulated corticosterone production [1]: inhibits
- loss of enzyme activity / P-450 scc inhibition [2]: P-450 scc inhibition
- loss of enzyme activity / P-450 scc inhibition ([2]; listed as trimethyl silyl-containing compound): time-dependent loss of enzyme activity
- inhibition of cortisol production ([3]; FIG. 4): strongly inhibits cortisol production
- time dependence of inhibition of cortisol production [3]: probably in a time dependent manner
- inhibition of ACTH-stimulated cortisol production [3]: inhibits

Compound: 22 (trimethylisilyl pregnenol)
- inhibition of cortisol production ([3]; FIG. 4): little inhibitory effect on cortisol production

Compound: CC(C)CCS[C@H](C)[C@H]1CC[C@H]2[C@@H]3CC=C4C[C@@H](O)CC[C@]4(C)[C@H]3CC[C@]12C [20(R)22 thiacholesterol]
- time dependence of inhibition of cortisol production [3]: not time dependent
- inhibition of cortisol production [3, 5]: inhibited slightly
- CORTICOSTERONE PRODUCED (%) [4, 6]: 117.9%

Compound: CC(C)CCS[C@@H](C)[C@H]1CC[C@H]2[C@@H]3CC=C4C[C@@H](O)CC[C@]4(C)[C@H]3CC[C@]12C [20(S)22 thiacholesterol]
- time dependence of inhibition of corticosterone production [1]: only slightly time dependent
- concentration dependence of inhibition of corticosterone production ([1]; FIG. 3): strongly concentration dependent
- inhibition of ACTH-stimulated corticosterone production [1]: inhibits
- time dependence of inhibition of cortisol production [3]: probably in a time dependent manner
- inhibition of cortisol production [3, 5]: strongly inhibited
- inhibition of ACTH-stimulated cortisol production [3]: inhibits
- CORTICOSTERONE PRODUCED (%) ([4]; 25 hydroxycholesterol 5 ug/ml + 20(S)22 thialcholesterol 5 ug/ml, without ACTH, ACTH only = 100, 60 min): 15.5%
- CORTICOSTERONE PRODUCED (%) [4, 6]: 54.1%
- corticosterone production (in words) ([4]; ACTH-stimulated cells): decreased corticosterone production

Compound: C[C@H](CCCC(C)(C)O)[C@H]1CC[C@H]2[C@@H]3CC=C4C[C@@H](O)CC[C@]4(C)[C@H]3CC[C@]12C [25 hydroxycholesterol, reference compound]
- CORTICOSTERONE PRODUCED (%) [4, 6]: 117.0%
- activity at 2 µg/mL ([4]; Rattus norvegicus, 1 h, steroid 2 ug/ml without ACTH, ACTH only = 100, read-out: CORTICOSTERONE PRODUCED (%)): 21.9%
- activity at 5 µg/mL ([4]; Rattus norvegicus, 1 h, steroid 5 ug/ml without ACTH, ACTH only = 100, read-out: CORTICOSTERONE PRODUCED (%)): 30.4%
- corticosterone production rate relative to ACTH stimulated cells ([4]; non-stimulated cells): as much as one-half those of ACTH stimulated cells

From patent publication US4560557A, “Silicon and sulfur steroids as irreversible inhibitors of hormone biosynthesis” (University Patents, Inc., priority 1983, dated 1985)
